Data on eight molecules can be found in patent publication US7416736B2, “Antimicrobial compositions” (Janssen Pharmaceutica N.V., priority 2001, dated 2008).

Holding throughout (type): cell-based
Experiment [1] deals with Chlorella pyrenoidosa NIES 226. Description: MIC against algae on Bold's Basal agar (Working Example 3). The following applies: weight ratio 0:1 (second component alone); 14 days at 25° C. and 1500 lux. How it is done:
By the following working examples, we describe in greater detail the antimicrobial effectiveness of the antimicrobial compositions of this invention. The term “MIC” as used in these working examples refers to the minimum inhibitory concentration (ppm) of the active ingredient in the antimicrobial compositions. […] The algae suspensions for inoculation used in working example 3 were prepared as follows. Bold's Basal liquid culture medium (50 ml) was inoculated with Chlorella pyrenoidosa NIES 226, it was shake-cultured for 14 days at 25° C., and algae suspensions for inoculation was thus prepared. […] Next, test culture media were prepared by adding each of the varying diluted aqueous solutions (0.1 ml) of these antimicrobial compositions to Bold's Basal agar culture medium (15 ml). Each of these test culture media was inoculated with the above algae suspensions for inoculation (1 ml), and after culturing for 14 days at 25° C. and 1500 lux. Then, the presence or absence of algae growth on each culture medium was observed visually. […] Table 5 lists the MIC, for algae, of the antimicrobial composition of each weight ratio.

Experiment [2] relates to Escherichia coli IFO 3972. Description: MIC against bacteria in nutrient broth (Working Example 1). Particulars: weight ratio 0:1 (second component alone), 24 hours at 30° C. How it is done:
(§1) By the following working examples, we describe in greater detail the antimicrobial effectiveness of the antimicrobial compositions of this invention. The term “MIC” as used in these working examples refers to the minimum inhibitory concentration (ppm) of the active ingredient in the antimicrobial compositions. […] The bacterial suspensions for inoculation used in working example 1 were prepared as follows. […] Next, test culture media were prepared by adding each of the varying diluted aqueous solutions (0.2 ml) of the antimicrobial compositions to a nutrient broth culture medium (10 ml). Each of these test culture media was inoculated with the above bacterial suspensions for inoculation (0.1 ml), and after culturing for 24 hours at 30° C. Then, the presence or absence of bacteria growth was assessed by visually observing the turbidity of the culture medium.

The test system of experiment [3] is Staphylococcus aureus IFO 12732. The experiment is described as above. Particulars: weight ratio 0:1 (second component alone), 24 hours at 30° C. The procedure: as §1
Experiment [4] relates to Aspergillus niger IFO 6341. The experiment can be described thus: MIC against fungi on potato dextrose agar (Working Example 2). Particulars: weight ratio 0:1 (second component alone), 7 days at 28° C.; for MIC: Aspergillus niger, IFO6341, 168 h, read-out: Minimum inhibitory concentration (ppm) against Aspergillus niger. How it is done: (§2) By the following working examples, we describe in greater detail the antimicrobial effectiveness of the antimicrobial compositions of this invention. The term “MIC” as used in these working examples refers to the minimum inhibitory concentration (ppm) of the active ingredient in the antimicrobial compositions. […] The spore suspensions for inoculation used in working example 2 were prepared as follows. Two fungi, Aspergillus niger IFO 6341 and Penicillium funiculosum IFO 6345, were cultured on two potato dextrose agar culture media not containing any biocides, and spores were formed. Next, said fungus spores were dispersed in disinfectant water to which 0.005% lubricant had been added, and two spore suspensions for inoculation were thus prepared. […] Next, test culture media were prepared by adding each of the varying diluted aqueous solutions (0.3 ml) of these antimicrobial compositions to a potato dextrose agar culture medium (15 ml). Each of these test culture media was inoculated with the above spore suspensions for inoculation (1 ml), and after culturing for 7 days at 28° C. Then, the presence or absence of fungus growth on each culture medium was observed visually.

Experiment [5] relates to Penicillium funiculosum IFO 6345. The experiment is described as above. Particulars: weight ratio 0:1 (second component alone), 7 days at 28° C.; for MIC: Talaromyces funiculosus, IFO6345, 168 h, read-out: Minimum inhibitory concentration (ppm) against Penicillium funiculosum. How it is done: as §2

Turning to `Clc1ccc(OCOCC#CI)cc1` [b, 1-chloro-4-[[(3-iodo-2-propynyl)oxy]methoxy] benzene], the “Minimum inhibitory concentration (ppm) against Chlorella pyrenoidosa” value in experiment [1] was 10 ppm. The MIC in experiment [2] (Escherichia coli, IFO3972, read-out: Minimum inhibitory concentration (ppm) against Escherichia coli) was found to be 1000 µg/mL; in experiment [3] (Staphylococcus aureus, IFO12732, read-out: Minimum inhibitory concentration (ppm) against Staphylococcus aureus) it was 20 µg/mL; in experiment [4], 1 µg/mL; in experiment [5], 4 µg/mL.
Take `[O-][n+]1ccccc1[S-].[O-][n+]1ccccc1[S-].[Zn+2]` [c, Zinc 2-pyridine thiol-1-oxide]: in experiment [1], the “Minimum inhibitory concentration (ppm) against Chlorella pyrenoidosa” value amounted to 20 ppm. Also, the “Minimum inhibitory concentration (ppm) against Escherichia coli” value in experiment [2] is reported as 40 ppm. Further, the “Minimum inhibitory concentration (ppm) against Staphylococcus aureus” value in experiment [3] came to 40 ppm. For the same molecule, in experiment [4], the “Minimum inhibitory concentration (ppm) against Aspergillus niger” value is given as 10 ppm. For the same molecule, in experiment [5], the “Minimum inhibitory concentration (ppm) against Penicillium funiculosum” value was determined as 1 ppm.
`[Cu+2].[O-][n+]1ccccc1[S-].[O-][n+]1ccccc1[S-]` [d, Copper 2-pyridine thiol-1-oxide]: the “Minimum inhibitory concentration (ppm) against Chlorella pyrenoidosa” value in experiment [1] turned out to be 100 ppm. In addition, the “Minimum inhibitory concentration (ppm) against Escherichia coli” value in experiment [2] stood at 200 ppm. Also, the “Minimum inhibitory concentration (ppm) against Staphylococcus aureus” value in experiment [3] is 10 ppm. In experiment [4], the “Minimum inhibitory concentration (ppm) against Aspergillus niger” value is 400 ppm. The “Minimum inhibitory concentration (ppm) against Penicillium funiculosum” value in experiment [5] is recorded as 1 ppm.
As to `[Na+].[O-][n+]1ccccc1[S-]` [e, 2-pyridine thiol-1-oxide sodium salt], the “Minimum inhibitory concentration (ppm) against Chlorella pyrenoidosa” value in experiment [1] is 40 ppm. Also, the “Minimum inhibitory concentration (ppm) against Escherichia coli” value in experiment [2] turned out to be 200 ppm. In addition, the “Minimum inhibitory concentration (ppm) against Staphylococcus aureus” value in experiment [3] is on record as 10 ppm. Moreover, the “Minimum inhibitory concentration (ppm) against Aspergillus niger” value in experiment [4] was 400 ppm. Besides, the “Minimum inhibitory concentration (ppm) against Penicillium funiculosum” value in experiment [5] is 2 ppm.
Taken in the same sequence, the figures for `[O-][n+]1ccccc1SSc1cccc[n+]1[O-]` [f, 2,2-dithio-bis(pyridine-1-oxide)] were 10 ppm, 10 ppm, 4 ppm, 10 ppm and 1 ppm.
As to `CSc1nc(NC2CC2)nc(NC(C)(C)C)n1` [g, 2-methylthio-4-t-butyl amino-6-cyclopropyl amino-s-triazine], the “Minimum inhibitory concentration (ppm) against Chlorella pyrenoidosa” value in experiment [1] worked out at 0.1 ppm.
In the case of `CCCCNC(=O)OCC#CI` [h, 3-iodo-2-propynyl butylcarbamate], in experiment [1], the “Minimum inhibitory concentration (ppm) against Chlorella pyrenoidosa” value was 40 ppm. In addition, the MIC in experiment [4] and in experiment [5] was 1 µg/mL each time.
For `CCCCCCCCn1sccc1=O` [i, 2-(n-octyl)-3(2H)-isothiazolone], the “Minimum inhibitory concentration (ppm) against Chlorella pyrenoidosa” value in experiment [1] was determined as 20 ppm. Moreover, the figures for the MIC in experiment [4] and in experiment [5] were 0.4 µg/mL and 0.2 µg/mL, respectively.
